Assay in all cases: Cell proliferation assay
Common to all, as to format: cell-based

One assay relates to Mino. Particulars: Homo sapiens; Mantle Cell Mino; overexpression of Cyclin D. The method in brief:
(§1)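 Cells seeded at 4×10^4 cells/ml and left overnight at 37° C., 5% CO2, then given compound at varying concentrations in triplicate for 72 hrs. Proliferation was read by acid phosphatase assay (10 mM p-nitrophenol phosphate, pH 5.5, 2 hours, 37° C.) at 405 nm minus 620 nm, as % inhibition versus DMSO controls.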

For another assay, the system named is SK-OV-3. Particulars: Homo sapiens, Table 7a, Ovarian (SKOV3). The method in brief:
as §1

The test system of the next assay is LOVO. Particulars: Homo sapiens, 72 hrs, read-out: Cell Viability: IC50. The method in brief:
as §1

Another assay deals with KPL-1. Particulars: 72 hrs, read-out: Cell Viability: IC50. The method in brief: as §1
In the next assay the test system is NCl-H1703. Particulars: 72 hrs, read-out: Cell Viability: IC50. The method in brief:
as §1

For another assay, the system named is COV504. Particulars: 72 hrs, read-out: Cell Viability: IC50. The method in brief:
as §1

For a further assay, the system named is OVISE. Particulars: 72 hrs, read-out: Cell Viability: IC50. The method in brief: as §1
The subject of another assay is SK-LU-1. The following applies: Homo sapiens, 72 hrs, read-out: Cell Viability: IC50. The method in brief:
as §1

The subject of the next assay is Hutu 80. The following applies: Homo sapiens, HuTu80, 72 hrs, read-out: Cell Viability: IC50. The method in brief: as §1
In a further assay the test system is MDA-MB-453. Particulars: Homo sapiens, 72 hrs, read-out: Cell Viability: IC50. The method in brief: as §1
Another assay deals with MDA-MB-231. Particulars: Homo sapiens, 72 hrs, read-out: Cell Viability: IC50. The method in brief: as §1
In another assay the test system is HCC38. The following applies: Homo sapiens, 72 hrs, read-out: Cell Viability: IC50. The method in brief: as §1
In a further assay the test system is NCl-H226. The following applies: 72 hrs, read-out: Cell Viability: IC50. The method in brief:
as §1

A further assay concerns HT-29. Particulars: Homo sapiens, 72 hrs, read-out: Cell Viability: IC50. The method in brief:
as §1

The next assay relates to NCl-H1395. The following applies: 72 hrs, read-out: Cell Viability: IC50. The method in brief:
as §1

In the next assay the test system is LS174T. Particulars: Homo sapiens, 72 hrs, read-out: Cell Viability: IC50. The method in brief: as §1
The next assay concerns OVTOKO. Particulars: 72 hrs, read-out: Cell Viability: IC50. The method in brief:
as §1

In the next assay the test system is MSTO-211H. The following applies: Homo sapiens, 72 hrs, read-out: Cell Viability: IC50. The method in brief:
as §1

Another assay deals with T-47D. Particulars: Homo sapiens, T47D, 72 hrs, read-out: Cell Viability: IC50. The method in brief:
as §1

A further assay concerns DLD-1. The following applies: Homo sapiens, 72 hrs, read-out: Cell Viability: IC50. The method in brief:
as §1

The test system of the next assay is SW527. The following applies: 72 hrs, read-out: Cell Viability: IC50. The method in brief:
as §1

The next assay relates to Calu-1. Particulars: Homo sapiens, 72 hrs, read-out: Cell Viability: IC50. The method in brief: as §1
The next assay relates to Caco-2. Particulars: Homo sapiens, 72 hrs, read-out: Cell Viability: IC50. The method in brief: as §1
The subject of a further assay is JIMT-1. Particulars: Homo sapiens, 72 hrs, read-out: Cell Viability: IC50. The method in brief: as §1
The test system of the next assay is Calu-6. Particulars: Homo sapiens, 72 hrs, read-out: Cell Viability: IC50. The method in brief: as §1
The test system of the next assay is MDA-MB-157. The following applies: Homo sapiens, 72 hrs, read-out: Cell Viability: IC50. The method in brief:
as §1

Another assay has as its system OVSAHO. Particulars: Homo sapiens, 72 hrs, read-out: Cell Viability: IC50. The method in brief: as §1
The subject of the next assay is NC-H196. The following applies: 72 hrs, read-out: Cell Viability: IC50. The method in brief:
as §1

A further assay has as its system NCl-H292. The following applies: 72 hrs, read-out: Cell Viability: IC50. The method in brief: as §1
The subject of the next assay is SK-BR-3. Particulars: Homo sapiens, 72 hrs, read-out: Cell Viability: IC50. The method in brief: as §1
For a further assay, the system named is RKO. Particulars: Homo sapiens, 72 hrs, read-out: Cell Viability: IC50. The method in brief: as §1
The next assay has as its system SW948. Particulars: Homo sapiens, 72 hrs, read-out: Cell Viability: IC50. The method in brief: as §1
The test system of a further assay is HCC1954. The following applies: Homo sapiens, 72 hrs, read-out: Cell Viability: IC50. The method in brief:
as §1

The subject of a further assay is ZR-75-1. The following applies: Homo sapiens, 72 hrs, read-out: Cell Viability: IC50. The method in brief:
as §1

The next assay concerns MDA-MB-436. The following applies: Homo sapiens, 72 hrs, read-out: Cell Viability: IC50. The method in brief: as §1
Another assay concerns SK-CO-1. The following applies: Homo sapiens, 72 hrs, read-out: Cell Viability: IC50. The method in brief:
as §1

The subject of another assay is BT-474. The following applies: Homo sapiens, 72 hrs, read-out: Cell Viability: IC50. The method in brief:
as §1

The test system of the next assay is MDA-MB-468. The following applies: Homo sapiens, 72 hrs, read-out: Cell Viability: IC50. The method in brief: as §1
Another assay concerns SW480. Particulars: Homo sapiens, 72 hrs, read-out: Cell Viability: IC50. The method in brief: as §1

`Cc1ccccc1C(=O)Nc1nc(NC(=O)c2ccccc2C)n(-c2ccc(OC(F)(F)F)cc2)n1` [Compound 42, N,N′-(1-(4-(trifluoromethoxy)phenyl)-1H-1,2,4-triazole-3,5-diyl)bis(2-methylbenzamide)]: half-maximal inhibition with Mino (IC50) required 0.345 µM. Also, the EC50 in the assay with SK-OV-3 came to 0.376 µM.

Turning to `Cc1ccccc1C(=O)Nc1nc(NC(=O)c2ccccc2C)n(-c2ccccc2)n1` [Compound F, 2-methyl-N-[5-[(2-methylbenzoyl)amino]-1-phenyl-1,2,4-triazol-3-yl]benzamide], the IC50 in the assay on LOVO was determined as 5.64 µM; in the assay with KPL-1 it was 3.86 µM; in the assay on NCl-H1703, 1.85 µM; with COV504, 2 µM; in the assay with OVISE it was 7.33 µM; in the assay on SK-LU-1, 5.73 µM. Further, the IC50 with Hutu 80 worked out at 1.63 µM; with MDA-MB-453, 3.04 µM; with MDA-MB-231 it was 6.98 µM; with HCC38, 5.77 µM; in the assay on NCl-H226, 7.33 µM; with HT-29, 2.96 µM. The IC50 is 7.6 µM with NCl-H1395; 2.37 µM in the assay with LS174T; more than 10 µM in the assay with OVTOKO; 2.31 µM with MSTO-211H; 7.37 µM in the assay on T-47D; 7.49 µM with DLD-1. In addition, the IC50 in the assay on SW527 is 6.69 µM; with Calu-1, 43.3 µM; in the assay on Caco-2, more than 10 µM; in the assay with JIMT-1, 8.49 µM; in the assay on Calu-6 it was 1.89 µM; in the assay on MDA-MB-157, 5.82 µM. Besides, the IC50 in the assay on OVSAHO stood at 6.53 µM; in the assay with NC-H196 it was 2.83 µM; in the assay with NCl-H292, 0.95 µM; in the assay on SK-BR-3, 3.05 µM; in the assay on RKO it was 4.12 µM; with SW948 it was 8.37 µM. Also, the IC50 was 3.69 µM with HCC1954; 3.87 µM in the assay with ZR-75-1; 6.55 µM with MDA-MB-436; 0.98 µM with SK-CO-1; 3.03 µM with BT-474; 3.18 µM in the assay with MDA-MB-468. Besides, the IC50 in the assay with SW480 came to 3.49 µM.

For orientation: IC50 means the point on the concentration scale where inhibition reaches its midpoint. Broadly, the EC50 is the concentration that produces a half-maximal response.
